# Test results as given in patent publication US20240226107A1, “UBIQUITIN-SPECIFIC PROTEASE 1 (USP1) INHIBITOR” (SIMCERE ZAIMING PHARMACEUTICAL CO., LTD., priority 2021, published 2024).
# Columns and labels:
# [1] = target: CYP3A4 (Homo sapiens (Human), UniProt P08684); assay: CYP enzyme inhibition in pooled human liver microsomes (midazolam); assay type: in vitro ADME
# Experimental: (§1) Typical substrate metabolic responses of five major human CYP subtypes (CYP1A2, CYP2C9, CYP2C19, CYP2D6, CYP3A4) were evaluated using 150-donor pooled human liver microsomes (purchased from Corning, Cat. No.: 452117). The influence of different concentrations of each compound to be tested on metabolic responses of phenacetin (CYP1A2), diclofenac sodium (CYP2C9), S-mephenytoin (CYP2C19), bufuralol hydrochloride (CYP2D6), and midazolam (CYP3A4) was determined by liquid chromatography-mass spectrometry (LC/MS/MS). […] Then 200 μL of acetonitrile solution containing 3% formic acid and 40 nM internal standard verapamil was added and centrifuged at 4000 rpm for 50 min. The mixture was cooled on ice for 20 min and centrifuged at 4000 rpm for 20 min to precipitate the protein. Then 200 μL of supernatant was analyzed by LC-MS/MS. The peak area was calculated from the chromatogram. The residual activity ratio (%) was calculated according to the following equation: Peak area ratio=metabolite peak area/internal standard peak area Residual activity ratio (%)=peak area ratio of compounds-to-be-tested group/peak area ratio of blank group The half inhibitory concentration (IC50) for CYP was calculated by Excel XLfit 5.3.1.3.
# [2] = Caco-2 permeability assay; assay type: in vitro ADME; conditions: human, pH 7.4
# Experimental: The apparent permeability coefficient (Papp) of the analytical drug was determined by liquid chromatography-mass spectrometry (LC-MS/MS) through a Caco-2 cell model.
# In this test example, Caco-2 cells were purchased from American Type Culture Collection (ATCC); 4-hydroxyethyl piperazine ethane sulfonic acid (HEPES) was purchased from Beijing Solarbio Science & Technology Co., Ltd.; Hanks' balanced salt solution (HBSS) and non-essential amino acids (NEAA) were purchased from ThermoFisher Scientific; penicillin, streptomycin, and trypsin/EDTA were purchased from Solarbio; fetal bovine serum (FBS) and DMEM medium were purchased from Corning; HTS-96-well Transwell plates and other sterile consumables were purchased from Corning; Millicell resistance measuring system was purchased from Millipore; Cellometer®K2 was purchased from Nexcelom Bioscience; Infinite 200 PRO microplate reader was purchased from Tecan; and MTS2/4 orbital shaker was purchased from IKA Labortechnik.
# Caco-2 cells were cultured in a culture flask. […] Cells at a confluency of 70-90% can be used to inoculate the Transwell. Prior to cell inoculation, 50 μL of cell culture medium was added to each well of the upper Transwell chamber and 25 mL of cell culture medium was added to the lower plate. The plate was incubated in an incubator (37° C., 5% CO2) for 1 h, and then inoculated with cells. After cell digestion, the cell suspension was pipetted and transferred to a round bottom centrifuge tube for centrifugation at 120 g for 5 min. […] The medium was changed as follows: transwell chambers were separated from the receiver plate, medium in the receiver plate was discarded, then medium in the Transwell chambers was discarded, and finally, 75 μL of fresh medium was added to each chamber, and 25 mL of fresh medium was added to the receiver plate.
# After approximately 14 days of culture, the Caco-2 cells reached the confluency and completed differentiation. In this case, the cells can be applied to permeability assay. The monolayer resistance was measured with a resistance meter (Millipore, USA) and the resistance per well was recorded. After the measurement, the Transwell plate was put back to the incubator. Calculation of resistance: measured resistance value (ohms)×membrane area (cm^2)=TEER value (ohm·cm^2); if TEER value <230 ohms·cm^2, the well can not be used for permeability assay.
# In 900 mL of purified water, 2.38 g HEPES and 0.35 g sodium bicarbonate were dissolved, then 100 mL of 10×HBSS was added and stirred well, pH was adjusted to 7.4, and finally, the resulting solution was filtered to obtain 1 L of transport buffer (HBSS, 10 mM HEPES, pH 7.4).
# A DMSO stock solution of 1 mM of compound to be tested was diluted with the transport buffer to obtain 5 μM test solution. The control compound digoxin or minoxidil was diluted with DMSO to 2 mM, and diluted with the transport buffer described above to 10 μM to obtain a control compound test solution. In addition, DMSO was also diluted with the transport buffer described above to a receiving end solution containing 0.5% DMSO.
# The Transwell plate was removed from the incubator. Monolayer cell membranes were rinsed twice with the transport buffer (10 mM HEPES, pH 7.4) and incubated at 37° C. for 30 min.
# The transport rate of the compound from the apical side to the basolateral side was determined. […]
# The transport rate of the compound from the basolateral side to the apical side was determined.
# [3] = Metabolic stability in vitro in rat hepatocytes; assay type: in vitro ADME; conditions: read-out: Intrinsic clearance
# Experimental: The concentration of each compound in the reaction system was measured by LC/MS/MS to calculate the intrinsic clearance of the compounds to be tested, and evaluate the metabolic stability in vitro in rat hepatocytes.
# To the incubation plate, 198 μL of 0.5×10^6 cells/mL rat hepatocyte mixture and 2.0 μL of 100 μM compound to be tested or positive control were added to initiate reaction. Incubation was performed at 900 rpm at 37° C. […] Then the mixture was vortex-mixed for 5 min. […] Then 100 μL of supernatant of each compound was transferred to a 96-well sample plate, and 100 μL of purified water was added to dilute the sample. The resulting samples were quantified by ion chromatograms. The residual rate was calculated from peak areas of the compounds to be tested or the positive control. The slope k was determined using Microsoft Excel by linear regression of natural logarithm of the residual rate to the incubation time. The intrinsic clearance (in vitro CLint, μL/min/10^6 cells) was calculated from the slope value according to the following equation: […]
# [4] = target: CYP2C9 (Homo sapiens (Human), UniProt P11712); assay: CYP enzyme inhibition in pooled human liver microsomes (diclofenac sodium); assay type: in vitro ADME
# Sequence of CYP2C9 (P11712 whole entry): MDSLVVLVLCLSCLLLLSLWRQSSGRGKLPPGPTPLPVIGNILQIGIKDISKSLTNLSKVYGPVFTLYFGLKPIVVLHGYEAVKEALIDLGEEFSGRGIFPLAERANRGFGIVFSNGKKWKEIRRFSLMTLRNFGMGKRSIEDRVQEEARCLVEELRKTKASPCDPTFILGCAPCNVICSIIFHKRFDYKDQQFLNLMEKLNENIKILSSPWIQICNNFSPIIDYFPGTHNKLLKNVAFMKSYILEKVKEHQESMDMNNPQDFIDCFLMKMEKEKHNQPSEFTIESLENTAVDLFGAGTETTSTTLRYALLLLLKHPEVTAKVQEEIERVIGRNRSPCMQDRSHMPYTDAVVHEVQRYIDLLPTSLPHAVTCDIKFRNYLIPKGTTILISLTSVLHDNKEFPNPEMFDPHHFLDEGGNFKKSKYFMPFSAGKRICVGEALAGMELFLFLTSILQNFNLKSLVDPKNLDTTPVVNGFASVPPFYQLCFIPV
# Experimental: as §1
# [5] = target: CYP2D6 (Homo sapiens (Human), UniProt P10635); assay: CYP enzyme inhibition in pooled human liver microsomes (bufuralol hydrochloride); assay type: in vitro ADME
# Sequence of CYP2D6 (P10635 whole entry): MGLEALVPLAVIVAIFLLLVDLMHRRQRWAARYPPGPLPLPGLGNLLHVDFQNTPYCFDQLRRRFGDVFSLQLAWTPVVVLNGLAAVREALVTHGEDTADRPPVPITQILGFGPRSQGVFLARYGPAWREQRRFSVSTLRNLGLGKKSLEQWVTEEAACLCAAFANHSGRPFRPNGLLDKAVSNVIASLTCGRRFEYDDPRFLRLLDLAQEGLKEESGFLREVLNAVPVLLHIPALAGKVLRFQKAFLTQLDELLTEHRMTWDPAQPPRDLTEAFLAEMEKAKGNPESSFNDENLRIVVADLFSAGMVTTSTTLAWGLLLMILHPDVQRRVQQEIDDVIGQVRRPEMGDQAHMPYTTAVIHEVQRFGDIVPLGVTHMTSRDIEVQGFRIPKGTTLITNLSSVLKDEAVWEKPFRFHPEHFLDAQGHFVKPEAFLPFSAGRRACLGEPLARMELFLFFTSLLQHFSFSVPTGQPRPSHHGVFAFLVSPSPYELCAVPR
# Experimental: as §1
# [6] = target: PXR (Homo sapiens (Human), UniProt O75469); assay: Potential for PXR activation in DPX2 cells; assay type: cell-based; conditions: 30 μM, versus 20 μM rifampicin
# Sequence of PXR (O75469 whole entry): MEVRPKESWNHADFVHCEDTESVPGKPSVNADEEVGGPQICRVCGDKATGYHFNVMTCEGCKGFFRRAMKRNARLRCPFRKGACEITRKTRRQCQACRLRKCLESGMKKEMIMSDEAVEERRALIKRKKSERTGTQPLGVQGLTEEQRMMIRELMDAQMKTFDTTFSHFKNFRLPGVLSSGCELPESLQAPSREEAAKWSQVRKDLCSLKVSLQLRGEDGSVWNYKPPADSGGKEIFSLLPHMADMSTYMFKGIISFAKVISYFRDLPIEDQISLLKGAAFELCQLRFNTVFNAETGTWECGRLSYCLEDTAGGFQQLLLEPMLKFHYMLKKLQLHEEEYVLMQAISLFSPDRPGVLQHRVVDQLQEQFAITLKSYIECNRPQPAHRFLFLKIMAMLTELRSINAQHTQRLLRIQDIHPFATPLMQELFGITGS
# Experimental: DMSO solutions of the compounds to be tested and the control compound rifampicin solution were prepared, and diluted with Puracyp dosing medium (Puracyp, Cat. No: D-500-100) at 37° C. to respective test concentrations. The final concentrations of the compounds to be tested were 30 μM, 10 μM, and 1 μM, respectively, and the final concentration of rifampicin was 20 μM. The final concentration of DMSO in the test solution was 0.1%. In addition, 0.1% DMSO solution prepared with Puracyp dosing medium was used as a control.
# DPX2 cells were suspended in Puracyp Culture medium (Puracyp, Cat No.: C-500-100) at a cell density of 4.5×10^5 cell/mL. Then, the suspension was placed on a 96-well culture plate at 100 μL/well for incubation at 37° C. for 24 h. The medium in appropriate wells of the 96-well culture plate was replaced (three times per well) by 100 μL of solution of the compounds to be tested and a control compound solution. After replacement, the plate was incubated at 37° C. for 24 h. The medium was then replaced (three times per well) by a newly prepared test solution of the compounds to be tested and a rifampicin test solution, and the plate was incubated at 37° C. for 24 h.
# The medium in the 96-well culture plate was pipetted and washed twice with PBS. To each well, 50 μL of reagent diluted as required by CellTiter-Fluor™ Cell Viability Assay Kit (Promega, Cat. No.: G6082) was added, and incubated at 37° C. for 0.5 h. The 96-well plate was cooled to room temperature, and the fluorescence value of each well at 505 nm was measured in a fluorescence mode with a microplate reader at an excitation wavelength of 400 nm. Then, 50 μL of reagent prepared as required by One-Glo Luciferase Assay System (Promega, Cat. No.: E6120) was added to each well, and the mixture was incubated at room temperature for 5 min. The luminescence value of each well was read by using a lumen meter.
# Normalized luciferase activity was determined by RLU/RFU, and the RLU and RFU of the samples were mean values of duplicate wells, respectively.
# [formula] • Fold of activation: fold of activation of normalized luciferase; • RLUtest: measured luminescence value of test wells at each test dose of test compounds; • RLUvehicle: measured luminescence value of test wells when tested with the control DMSO solution; • RFUtest: measured fluorescence value of test wells at each test dose of test compounds; • RFUvehicle: measured fluorescence value of test wells when tested with the control DMSO solution.
# The percentage of positive control was calculated as follows:
# % Positive control=(fold activationtest compound−1)/(fold activationpositive control compound−1)×100% • % Positive control: percentage of PXR activation compared with 20 μM rifampicin activation at each test dose of test compounds; • Fold activationtest compound: fold of activation of normalized luciferase at each test dose of test compounds; • Fold activationpositive control compound: fold of activation of normalized luciferase of test compounds under 20 μM rifampicin.
# Sequence of CYP3A4 (P08684 whole entry): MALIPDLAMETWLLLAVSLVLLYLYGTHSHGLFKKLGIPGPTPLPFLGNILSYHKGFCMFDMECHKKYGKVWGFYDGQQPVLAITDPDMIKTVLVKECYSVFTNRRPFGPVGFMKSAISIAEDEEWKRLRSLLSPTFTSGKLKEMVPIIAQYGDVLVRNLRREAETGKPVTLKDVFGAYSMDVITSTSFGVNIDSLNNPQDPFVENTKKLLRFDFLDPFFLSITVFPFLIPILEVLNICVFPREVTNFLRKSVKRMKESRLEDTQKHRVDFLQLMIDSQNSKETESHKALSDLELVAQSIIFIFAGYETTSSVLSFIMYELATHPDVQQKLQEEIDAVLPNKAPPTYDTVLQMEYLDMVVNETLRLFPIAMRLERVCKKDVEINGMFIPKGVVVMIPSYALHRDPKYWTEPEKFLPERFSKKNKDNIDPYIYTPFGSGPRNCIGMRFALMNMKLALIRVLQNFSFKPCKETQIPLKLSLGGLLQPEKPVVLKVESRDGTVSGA
structure (smiles),measurement,setting,value
"COc1ncnc(C2CC2)c1-c1ncc2c(n1)N(Cc1ccc(-c3nc(C(F)(F)F)cn3C)cc1)CC(=O)N2C [Compound 11, 2-(4-cyclopropyl-6-methoxypyrimidin-5-yl)-5-methyl-8-(4-(1-methyl-4-(trifluoromethyl)-1H-imidazol-2-yl)benzyl)-7,8-dihydropteridin-6(5H)-one]",IC50,[1],> 30 µM
same,"Papp A→B at 2 h, 5 μM","[2]; Caco-2, 5 μM, 2 h, apical to basolateral",4.9 ×10⁻⁶ cm/s
same,"Papp B→A at 2 h, 5 μM","[2]; Caco-2, 5 μM, 2 h, basolateral to apical",17.6 ×10⁻⁶ cm/s
same,"efflux ratio at 2 h, 5 μM","[2]; Caco-2, Papp (B−A)/Papp (A−B)",3.6
same,hepatocyte CLint at 1 μM,[3],< 1 µL/min/1e6 cells
same,IC50,[4],28.9 µM
same,IC50,[5],> 30 µM
same,PXR activation (% Positive control),[6],14.0 % Positive control
